# From ChEMBL document CHEMBL1144973, “Design, synthesis, and structure-activity relationship of a new class of amidinophenylurea-based factor VIIa inhibitors” (Bioorg Med Chem Lett, 2003)
# Legend:
# [1] = biological target: Coagulation factor X (Homo sapiens, UniProt P00742); test: In vitro inhibitory activity against […] coagulation factor (fXa)
# [2] = biological target: Prothrombin (Homo sapiens, UniProt P00734); test: In vitro inhibitory activity against thrombin
# [3] = biological target: T1, Coagulation factor VII (Homo sapiens, UniProt P08709); test: In vitro inhibitory activity against coagulation factor VII (fVIIa)
# T1 sequence (P08709 whole entry): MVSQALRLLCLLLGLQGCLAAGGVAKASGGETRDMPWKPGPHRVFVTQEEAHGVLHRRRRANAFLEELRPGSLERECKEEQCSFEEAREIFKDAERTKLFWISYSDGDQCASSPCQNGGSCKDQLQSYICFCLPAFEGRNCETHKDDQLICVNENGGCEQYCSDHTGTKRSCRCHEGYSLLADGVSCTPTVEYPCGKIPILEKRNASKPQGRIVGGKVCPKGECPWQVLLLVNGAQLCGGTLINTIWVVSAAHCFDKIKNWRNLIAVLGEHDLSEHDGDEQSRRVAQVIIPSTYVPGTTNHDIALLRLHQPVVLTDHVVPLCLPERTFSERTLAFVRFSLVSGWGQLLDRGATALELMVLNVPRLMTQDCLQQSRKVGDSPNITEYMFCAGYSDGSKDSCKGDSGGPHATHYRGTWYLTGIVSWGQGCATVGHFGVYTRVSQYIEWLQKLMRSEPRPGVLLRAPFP
# Chain of Coagulation factor X (P00742 41-179 limits assumed): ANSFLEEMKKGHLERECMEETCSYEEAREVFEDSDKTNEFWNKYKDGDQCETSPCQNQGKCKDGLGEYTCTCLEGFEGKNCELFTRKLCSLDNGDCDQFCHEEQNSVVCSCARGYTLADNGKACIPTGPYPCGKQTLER
# Chain of Coagulation factor X (P00742 235-488 limits assumed): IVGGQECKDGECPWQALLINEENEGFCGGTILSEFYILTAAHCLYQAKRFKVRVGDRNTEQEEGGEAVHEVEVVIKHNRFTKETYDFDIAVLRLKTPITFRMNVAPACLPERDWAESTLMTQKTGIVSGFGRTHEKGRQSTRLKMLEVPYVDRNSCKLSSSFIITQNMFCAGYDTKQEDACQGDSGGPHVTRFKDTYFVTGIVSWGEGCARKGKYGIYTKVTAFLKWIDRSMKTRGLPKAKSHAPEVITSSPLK
Ki [1],Ki [2],Ki [3],SMILES
> 10 µM,16.4 µM,–,CC(NC(=O)CNC(=O)Nc1ccc(C(=N)N)cc1)c1ccc2c(c1)NC(=O)CO2 (stereo not given)
14.5 µM,10.1 µM,–,N=C(N)c1ccc(NC(=O)NCC(=O)NCc2ccc(Cl)c(Cl)c2)cc1
7.8 µM,> 50 µM,1.51 µM,N=C(N)c1ccc(NC(=O)NCC(=O)NCc2cccc(Br)c2)cc1
> 10 µM,> 50 µM,–,C[C@@H](NC(=O)CNC(=O)Nc1ccc(C(=N)N)cc1)c1ccccc1
> 10 µM,50.7 µM,–,C[C@H](NC(=O)CNC(=O)Nc1ccc(C(=N)N)cc1)c1ccccc1
> 10 µM,18.2 µM,0.035 µM,COc1cccc([C@H](C)NC(=O)CNC(=O)Nc2ccc(C(=N)N)cc2)c1
> 10 µM,15.9 µM,0.027 µM,C[C@H](NC(=O)CNC(=O)Nc1ccc(C(=N)N)cc1)c1cccc(Br)c1
–,–,31 µM,C[C@@H](NC(=O)CNC(=O)Nc1ccc(C(=N)N)cc1)c1cccc(Br)c1
> 10 µM,11.2 µM,0.067 µM,C[C@H](NC(=O)CNC(=O)Nc1ccc(C(=N)N)cc1)c1ccc2c(c1)OCCO2
> 10 µM,> 100 µM,–,CC(NC(=O)CNC(=O)Nc1ccc(C(=N)N)cc1)c1ccc(C(F)(F)F)cc1C(F)(F)F (stereo not given)
–,–,3.76 µM,C[C@H](NC(=O)CNC(=O)Nc1ccc(C(=N)N)c(Cl)c1)c1cccc(Br)c1
> 10 µM,> 50 µM,–,CC(C)(NC(=O)CNC(=O)Nc1ccc(C(=N)N)cc1)c1ccccc1
–,–,0.47 µM,CC(NC(=O)CNC(=O)Nc1ccc(C(=N)N)c(F)c1)c1ccc2c(c1)NC(=O)CO2 (stereo not given)
–,–,0.12 µM,C[C@H](NC(=O)CNC(=O)Nc1ccc(C(=N)N)c(F)c1)c1cccc(Br)c1
–,–,45.8 µM,C[C@H](NC(=O)Nc1ccc(C(=N)N)cc1)C(=O)NCc1ccc(Cl)c(Cl)c1
–,–,3.2 µM,C[C@H](NC(=O)C(NC(=O)Nc1ccc(C(=N)N)cc1)c1ccccc1)c1cccc(Br)c1 (stereo not given in full)
